From patent publication US10852302B2, “Method for evaluation of function of phagocyte” (MOCHIDA PHARMACEUTICAL CO., LTD., priority 2008, dated 2020)

Tests used:
Assay type in all cases: cell-based
[1] = system: granulocyte from the rabbit peritoneal cavity; assay: sCD14-ST production by rabbit peritoneal granulocyte stimulated with leukocyte stimulants; conditions: rabbit granulocyte 1×10^7 cells/mL, stimulant, 37° C. for 2 hours, supernatant, sandwich ELISA (FIG. 4)
Method: (§1) Two step sandwich ELISA system was constructed by using the F1301-9-1 antibody produced in Example 1-(4) for the solid phase antibody, and the F1258-7-2 Fab′-HRP antibody prepared in Example 3-(1) for the labeling antibody. More specifically, the F1301-9-1 antibody was diluted with D-PBS (pH 7.4) to 10 μg/mL, and added to the wells of immunoplate (Maxisorb, Nunc) at 50 μL/well. After allowing the reaction to proceed overnight at 4° C., the well was washed 5 times with ion exchanged water. D-PBS (pH 7.4) containing 5% StabilGuard (SurModics) and 0.1% Tween 20 was added to the wells at 200 μL/well for blocking. Next, the specimen was diluted by using 150 mM phosphate buffer (pH 6.0) containing 5% normal rabbit serum (serum from which soluble CD14 antigen has been removed by using the rabbit CD14 affinity antibody column), 1% BSA, and 0.1% Tween 20 for dilution, and the diluted specimen was added to the well at 50 μL/well and allowed to react at 25° C. for 3 hours. […] The reaction was ceased with 0.5M sulfuric acid solution, and absorbance at 450 nm was measured by using a plate spectrophotometer (NJ-2100, Intermed Japan). […]
Various leukocyte stimulants were added to the granulocyte to evaluate the amount of sCD14-ST produced. […] After incubating at 37° C. for 2 hours, the supernatant was collected by centrifugation and sCD14-ST was measured by the assay system of Example 3-(2).

[2] = system: granulocyte from rabbit peritoneal cavity; assay: Action of phagocytosis inhibitors on sCD14-ST production by rabbit granulocyte stimulated with E. coli; conditions: inhibitor preincubated 37° C. 30 minutes, then 20 times by cell count of E. coli, 2 hours (FIG. 6)
Method: as §1, with “hours. After completion of the reaction, the well was washed 5 times with physiological saline containing 0.05% Tween 20. The F1258-7-2 Fab′-HRP was diluted with 75 mM phosphate buffer (pH 6.4) containing 4% rat serum and 0.05% Tween 20, and added to the well at 50 μL/well.” for “hours.”

[3] = system: human peripheral blood granulocyte; assay: Action of phagocytosis inhibitors on sCD14-ST production by human granulocyte stimulated with E. coli; conditions: inhibitor preincubated 37° C. 1 hour, then 30 times by cell count of E. coli, 2 hours (FIG. 9)
Method: Granulocyte fraction was prepared from peripheral blood collected from a healthy human donor by density-gradient centrifugation using two layers each having a specific gravity of d=1.077 and d=1.119.
Various leukocyte stimulants were added to the granulocyte to evaluate the amount of sCD14-ST produced. More specifically, human peripheral blood granulocyte collected in Example 7-(1) was suspended in RPMI1640 culture containing 10% healthy human serum, 2 mM Glutamin, 10 mM HEPES, and 10 ng/ml G-CSF (SIGMA R8758) to a cell concentration of 0.5×10^7 cells/mL, and added to the wells of a 96 well culture plate (Nunclon Surface, Nunc) at 100 μL/well. The granulocyte was incubated overnight at 37° C. in the presence of 5% carbon dioxide. Next, various stimulants were adjusted to 1.5 fold concentration with HBSS buffer containing 10% healthy human serum, 2 mM Glutamin, and 10 mM HEPES, and added to the well at 200 μL/well. After incubating at 37° C. for 2 hours, the supernatant was collected by centrifugation, and human sCD14-ST was measured by using the assay kit described in Example 7-(3) of WO 2005/108429. More specifically, the sandwich assay kit used was the one containing the antibody which binds to the peptide consisting the amino acid sequence of 53rd to 68th amino acid residue of the human CD14 (S68 antibody), which specifically recognizes the human sCD14-ST. […]

[4] = system: granulocyte from the rabbit peritoneal cavity; assay: High molecular weight sCD14 production by rabbit granulocyte stimulated with leukocyte stimulants; conditions: stimulant, kit for high molecular weight sCD14 (R&D) (FIG. 5)

Structure (SMILES)	sCD14-ST production [1]	Production of the rabbit sCD14-ST (effect of inhibitor) [2]	sCD14-ST production (effect of inhibitor) [3]	production of the high molecular weight sCD14 [4]
CSCC[C@H](NC=O)C(=O)N[C@@H](CC(C)C)C(=O)N[C@@H](Cc1ccccc1)C(=O)O [fMLP, formyl methionyl leucyl phenylalanine]	increase in the sCD14-ST was not recognized	–	–	–
COC[C@H]1OC(=O)c2coc3c2[C@@]1(C)C1=C(C3=O)[C@@H]2CCC(=O)[C@@]2(C)C[C@H]1OC(C)=O [Wortomanin]	–	inhibited	inhibited the sCD14-ST production	–
CCCCCCCCCCCCCC(=O)O[C@@H]1[C@@H](C)[C@@]2(O)[C@@H](C=C(CO)C[C@]3(O)C(=O)C(C)=C[C@@H]23)[C@@H]2C(C)(C)[C@]12OC(C)=O [PMA, phorbol myristate acetate]	increase in the sCD14-ST was not recognized	–	–	increase in the production of the high molecular weight sCD14 was recognized
C=C1[C@@H](C)[C@H]2[C@H](Cc3ccccc3)NC(=O)[C@]23[C@H](OC(C)=O)/C=C/[C@@](C)(O)C(=O)[C@@H](C)C/C=C/[C@H]3[C@@H]1O [Cytochalasin D]	–	inhibited	inhibited the sCD14-ST production	–
